In PMC9516332 (Frontiers in Oncology, 2022):
Read-outs that look alike come from different tables or passages of the source.

Tested on: 134 cancer cell lines
Assay: Cell viability assay (ATPlite, 72 hours), IC50 on cancer cell line panel

FC(F)(F)c1ccc(CNc2ccc(Cc3c[nH]c4ncc(Cl)cc34)cn2)cn1 [pexidartinib]
IC50 (Homo sapiens, MOLT-4, read-out: IC50 in cell proliferation assay, MOLT-4 cell line): > 31.6 µM | IC50 (Homo sapiens, MV4-11, read-out: IC50 in cell proliferation assay, MV4-11 cell line (FLT3 ITD)): 0.254 µM | IC50 (Homo sapiens, MeWo, read-out: IC50 in cell proliferation assay, MeWo cell line): > 31.6 µM | IC50 (Homo sapiens, NCCIT, read-out: IC50 in cell proliferation assay, NCC-IT cell line): > 31.6 µM | IC50 (Homo sapiens, NCI-H82, read-out: IC50 in cell proliferation assay, cell line NCI-H82): > 31.6 µM | IC50 (Homo sapiens, NCI-H460, read-out: IC50 in cell proliferation assay, NCI-H460 cell line): 3.33 µM | IC50 (Homo sapiens, NCI-H661, read-out: IC50 in cell proliferation assay, NCI-H661 cell line): > 31.6 µM | IC50 (Homo sapiens, NCI-H716, read-out: IC50 in cell proliferation assay, cell line NCI-H716 (FGFR2-COL14A1)): 17 µM | IC50 (Homo sapiens, NCI-H1650, read-out: IC50 in cell proliferation assay, NCI-H1650 cell line (EGFR exon19del)): > 31.6 µM | IC50 (Homo sapiens, NCI-H1975, read-out: IC50 in cell proliferation assay, NCI-H1975 cell line (EGFR p.L858R + p.T790M)): > 31.6 µM | IC50 (Homo sapiens, NCI-H2228, read-out: IC50 in cell proliferation assay, NCI-H2228 cell line (EML4-ALK)): > 31.6 µM | IC50 (Homo sapiens, OVCAR-3, read-out: IC50 in cell proliferation assay, cell line OVCAR-3): > 31.6 µM | IC50 (Homo sapiens, PFSK-1, read-out: IC50 in cell proliferation assay, cell line PFSK-1): > 31.6 µM | IC50 (Homo sapiens, RL95-2, read-out: IC50 in cell proliferation assay, cell line RL95-2 (EGFR p.A289V)): > 31.6 µM | IC50 (Homo sapiens, RPMI-7951, read-out: IC50 in cell proliferation assay, cell line RPMI-7951 (BRAF p.V600E)): 26.5 µM | IC50 (Homo sapiens, RS4-11, read-out: IC50 in cell proliferation assay, cell line RS4;11): > 31.6 µM | IC50 (Homo sapiens, Rec1, read-out: IC50 in cell proliferation assay, cell line REC-1): 16 µM | IC50 (Homo sapiens, SHP77, read-out: IC50 in cell proliferation assay, cell line SHP-77): > 31.6 µM | IC50 (Homo sapiens, SK-BR-3, read-out: IC50 in cell proliferation assay, cell line SK-BR-3 (ERBB2 amplification)): > 31.6 µM | IC50 (Homo sapiens, SK-N-AS, read-out: IC50 in cell proliferation assay, cell line SK-N-AS): > 31.6 µM | IC50 (Homo sapiens, SK-N-FI, read-out: IC50 in cell proliferation assay, cell line SK-N-FI): > 31.6 µM | IC50 (Homo sapiens, SK-N-MC, read-out: IC50 in cell proliferation assay, cell line SK-N-MC): > 31.6 µM | IC50 (Homo sapiens, SK-N-SH, read-out: IC50 in cell proliferation assay, cell line SK-N-SH (ALK p.F1174L)): > 31.6 µM | IC50 (Homo sapiens, SNU-5, read-out: IC50 in cell proliferation assay, cell line SNU-5 (MET amplification)): > 31.6 µM | IC50 (Homo sapiens, SNU-16, read-out: IC50 in cell proliferation assay, cell line SNU-16 (FGFR2 amplification)): 8.76 µM | IC50 (Homo sapiens, SNU-C2B, read-out: IC50 in cell proliferation assay, cell line SNU-C2B (EGFR p.R165Q)): > 31.6 µM | IC50 (Homo sapiens, SU-DHL-1, read-out: IC50 in cell proliferation assay, cell line SU-DHL-1 (NPM1-ALK)): > 31.6 µM | IC50 (Homo sapiens, SU-DHL-6, read-out: IC50 in cell proliferation assay, cell line SU-DHL-6): > 31.6 µM | IC50 (Homo sapiens, SUP-T1, read-out: IC50 in cell proliferation assay, cell line SUP-T1): > 31.6 µM | IC50 (Homo sapiens, SW48, read-out: IC50 in cell proliferation assay, cell line SW48 (EGFR p.G719S)): > 31.6 µM | IC50 (Homo sapiens, SW480, read-out: IC50 in cell proliferation assay, cell line SW480): > 31.6 µM | IC50 (Homo sapiens, SW626, read-out: IC50 in cell proliferation assay, cell line SW626): > 31.6 µM | IC50 (Homo sapiens, SW780, read-out: IC50 in cell proliferation assay, cell line SW780 (FGFR3-BAIAP2L1)): 5.07 µM | IC50 (Homo sapiens, SW837, read-out: IC50 in cell proliferation assay, cell line SW837): > 31.6 µM | IC50 (Homo sapiens, SW872, read-out: IC50 in cell proliferation assay, cell line SW872 (BRAF p.V600E)): > 31.6 µM | IC50 (Homo sapiens, SW900, read-out: IC50 in cell proliferation assay, cell line SW900): > 31.6 µM | IC50 (Homo sapiens, SW948, read-out: IC50 in cell proliferation assay, cell line SW948): 19.9 µM | IC50 (Homo sapiens, SW982, read-out: IC50 in cell proliferation assay, cell line SW982 (BRAF p.V600E)): > 31.6 µM | IC50 (Homo sapiens, SW-620, read-out: IC50 in cell proliferation assay, cell line SW620): > 31.6 µM | IC50 (Homo sapiens, T98G, read-out: IC50 in cell proliferation assay, cell line T98G): > 31.6 µM | IC50 (Homo sapiens, TCC-SUP, read-out: IC50 in cell proliferation assay, cell line TCCSUP): > 31.6 µM | IC50 (Homo sapiens, THP-1, read-out: IC50 in cell proliferation assay, cell line THP-1): > 31.6 µM | IC50 (Homo sapiens, U2OS, read-out: IC50 in cell proliferation assay, cell line U2OS): > 31.6 µM | IC50 (Homo sapiens, U-87 MG, read-out: IC50 in cell proliferation assay, cell line U-87MG ATCC): > 31.6 µM | IC50 (Homo sapiens, U-118-MG, read-out: IC50 in cell proliferation assay, cell line U-118MG): > 31.6 µM | IC50 (Homo sapiens, UMUC3, read-out: IC50 in cell proliferation assay, cell line UM-UC-3): > 31.6 µM | IC50 (Hs766T, read-out: IC50 in cell proliferation assay, Hs 766T cell line): > 31.6 µM | IC50 (L-82, read-out: IC50 in cell proliferation assay, L-82 cell line (NPM1-ALK)): > 31.6 µM | IC50 (Rh30, read-out: IC50 in cell proliferation assay, cell line Rh30): > 31.6 µM | IC50 (read-out: IC50 in cell proliferation assay, 11-18 cell line (EGFR p.L858R)): > 31.6 µM | IC50 (read-out: IC50 in cell proliferation assay, Hs 852.T cell line): > 31.6 µM | IC50 (read-out: IC50 in cell proliferation assay, JAR cell line): > 31.6 µM | IC50 (read-out: IC50 in cell proliferation assay, cell line 5637): 18.3 µM | IC50 (read-out: IC50 in cell proliferation assay, cell line A-388): > 31.6 µM | IC50 (read-out: IC50 in cell proliferation assay, cell line DB): > 31.6 µM | IC50 (read-out: IC50 in cell proliferation assay, cell line DEL (NPM1-ALK)): > 31.6 µM | IC50 (read-out: IC50 in cell proliferation assay, cell line ES-2 (BRAF p.V600E)): > 31.6 µM | IC50 (read-out: IC50 in cell proliferation assay, cell line PA-1): 17.3 µM | IC50 (read-out: IC50 in cell proliferation assay, cell line PC-3): > 31.6 µM | IC50 (read-out: IC50 in cell proliferation assay, cell line RD): > 31.6 µM | IC50 (read-out: IC50 in cell proliferation assay, cell line RKO (BRAF p.V600E)): > 31.6 µM | IC50 (read-out: IC50 in cell proliferation assay, cell line RL): > 31.6 µM | IC50 (read-out: IC50 in cell proliferation assay, cell line RT-4 (FGFR3-TACC3)): > 31.6 µM | IC50 (read-out: IC50 in cell proliferation assay, cell line SR (NPM1-ALK)): 27.3 µM | IC50 (read-out: IC50 in cell proliferation assay, cell line T24): > 31.6 µM | IC50 (read-out: IC50 in cell proliferation assay, cell line TT (RET p.C634W)): > 31.6 µM | IC50 (read-out: IC50 in cell proliferation assay, cell line VA-ES-BJ): > 31.6 µM
